Results from patent publication US20150313928A1, “NEW APPLICATION OF CATALPOL” (SUZHOU YOUSEEN NEW PHARMACY DEVELOPMENT CO., LTD., priority 2012, published 2015).

Columns and labels:
[1] = system: mice in the hyperthyroidism model group; assay: Observation of appearance and behavior of the mice; type: in vivo, Kunming mice; settings: in words, as compared with the model group; daily observation
Description: (§1) The successfully modeled mice are randomized into 5 groups (10 mice per group), that is, the hyperthyroidism model group, the catalpol low dosage group, the catalpol medium group, the catalpol high dosage group, and the methimazole group, plus the blank group (10 mice). The catalpol low dosage group is administered 30mg/kg catalpol, the catalpol medium dosage group 60 mg/kg, the catalpol high group 90 mg/kg and the methimazole group 7.5 mg/kg methimazole, all by gastric infusion, while the blank group and the hyperthyroidism group are administered equal amount of distilled water, once per day, for 20 consecutive days. With the exception of the blank group, each mouse in each group continues to be administered 350 ug/kg levothyroxine sodium by means of subcutaneous injection each day. Animals were observed and recorded daily for their general status, including mental status, color and hair change, appearance and behavior. In addition, every two days, record is taken of their food intake.

[2] = system: mice in the hyperthyroidism model group; assay: Measurement of mice weight change; type: in vivo, Kunming mice; settings: for BW2 − BW1: body weight difference; for BW2 − BW1 / BW2: 20 days; for body weight increase: in words, compared with the model group, catalpol groups, methimazole 7.5 mg/kg; for BW2: post-treatment body weight, levothyroxine sodium 350 ug/kg s.c. daily; for BW1: pre-treatment body weight
Description: (§2) The successfully modeled mice are randomized into 5 groups (10 mice per group), that is, the hyperthyroidism model group, the catalpol low dosage group, the catalpol medium group, the catalpol high dosage group, and the methimazole group, plus the blank group (10 mice).
(§3) The catalpol low dosage group is administered 30mg/kg catalpol, the catalpol medium dosage group 60 mg/kg, the catalpol high group 90 mg/kg and the methimazole group 7.5 mg/kg methimazole, all by gastric infusion, while the blank group and the hyperthyroidism group are administered equal amount of distilled water, once per day, for 20 consecutive days. With the exception of the blank group, each mouse in each group continues to be administered 350 ug/kg levothyroxine sodium by means of subcutaneous injection each day.
A mouse is suspended of food without suspension of water for 12 hours starting at 8 o'clock one day prior to the first medication, and all the mice are taken of their body weight (BW) the next day, that is, the pre-treatment body weight (BW1); the mouse is suspended of food without suspension of water for 12 hours starting at 8 o'clock of the day of the last medication, its body weight (BW) is taken the next day, that is, the post-treatment body weight (BW2); the difference of the pre-treatment body weight and the post-treatment body weight is calculated to compare the change of the body weight of the mice among each group.

[3] = system: mice in the hyperthyroidism model group; assay: Measurement of the oxygen consumption of the mice; type: in vivo, Kunming mice; settings: for Decrease in oxygen content: measured two days prior to the last medication, 21% minus residual oxygen; for oxygen consumption: in words, compared with the model group, catalpol low (30 mg/kg) and high (90 mg/kg) dosage groups, methimazole 7.5 mg/kg
Description: as §2, §3
Oxygen consumption is measured two days prior to the last medication. The specific method is: take a model CY-3 digital oxygen meter and install therein an oxygen electrode. Connect, perform zero adjustment, and repeat until the instrument is stable for use. Take a 500 ml bottle, fix its outward connecting pipe with a rubber cover, seal with Vaseline. The rubber cover is connected via a tee, and a shift in the tee is selectable for connection or disconnection with outer space. A mouse is placed inside the bottle, and the mouth of the bottle is instantly covered with a wood plug to shut off air from the inner flask. The filtering flask is horizontally placed on the experiment table, and timing of 20 minutes After 20 minute, 10 ml air from the bottle was taken out by a injector and rapidly injected into a connector of the CY-3 type digital oxygen analyzer with the oxygen analyzer indicating oxygen content of the pumped in air. The data, when stable, is recorded as the residual oxygen value, then the oxygen consumption (20 min, 10 ml)=21%—residual oxygen value (%). (21% oxygen in air).

[4] = system: mice in the hyperthyroidism model group; assay: Measurement of heart rate of the mice (electrocardiogram); type: in vivo, Kunming mice
Description: as §1, with “All the mice are suspended of food without suspension of water for 12 hours one day prior to the last medication” for “Animals were observed”, “heart rate is measured 3 hours later. Heart rate (HR) is calculated via the electrocardiogram, statistics is then conducted,” for “recorded daily for their general status, including mental status, color”, “differences are compared.” for “hair change, appearance and behavior. In addition, every two days, record is taken of their food intake.”

[5] = system: mice in the hyperthyroidism model group; assay: Measurement of the level of thyroid hormone of serum (radioimmunoassay); type: in vivo, Kunming mice; settings: for T3 level in the serum / FT3 level in the serum / FT4 level in the serum / T4 level in the serum: in words, compared with the model group; for T3 level in the serum: catalpol 30, 60, 90 mg/kg groups, methimazole 7.5 mg/kg, P<0.05; for FT3 level in the serum: catalpol low P<0.01, medium, high and methimazole P<0.05; for FT4 level in the serum: only catalpol low dosage significant (P<0.05); for T4 level in the serum: only methimazole difference significant (P<0.05); for FT3 / FT4 / T3 / T4: serum, 20 days
Description: as §2, §3
A mouse is suspended of food without suspension of water for 12 hours subsequent to the last medication, and blood is taken from its eye ball, put in centrifugation for 15 minutes at 3500 r/min, serum is pumped out for measurement of T3, T4, FT3, and FT4 by means of radioimmunoassay. For detailed operations, see the instruction manual.

[6] = system: mice in the hyperthyroidism model group; assay: Measurement of heart indexes of the mice; type: in vivo, Kunming mice; set-up: HWI / LVWI: unit not given here; settings: for HWI: heart weight index = HW/BW; for HWI / LVWI: 20 days; for heart weight index / left ventricular index: in words, compared with the model group; for heart weight index: catalpol medium and high dosage and methimazole significant; for left ventricular index: catalpol medium and high dosage significant (P<0.01); for LVWI: left ventricular weight index = LVW/BW
Description: as §2, §3
A mouse is sacrificed its heart instantly taken out for measurement of its heart weight (HW) and (left ventricular weight (LVW). Heart weight index (HWI=HW/BW) and left ventricular weight index (LVWI=LVW/BW) is calculated at conclusion the experiment.

Kunming mice = assay: Animal model preparation: injection of levothyroxine sodium (heart rate, serum T3/T4, heart weight index); type: in vivo; settings: levothyroxine sodium 350 μg/kg subcutaneous injection, model group
Description: The animals are placed indoor for milieu adaptation 2 days prior to the experiment. 20 Kunming mice are randomly selected and put in the blank group, administered normal saline by subcutaneous injection, while the other mice are administered levothyroxine sodium 350 μg/kg by subcutaneous injection, with a daily dosage of 10 ml/kg, for 7 consecutive days.
After the third hour at the sixth day of medication, 10 mice (half male and half female) are randomly selected respectively from the blank group and the model group for measurement of heart rate. Under anesthesia, the mice are taken electrocardiogram for calculation of their heart rate. Statistical analysis is then conducted for comparison of differences.
In the case of substantial acceleration of its heart rate, a mouse is suspended of food without suspension of water for 12 hours starting at 8 o'clock of the last day (the seventh day) of medication. Each mouse in each group is taken of its weight at 8 o'clock the next morning. Blood is taken from its eye ball and subsequent to coagulation, put in centrifugation for 15 minutes at 3500 r/min, for measurement of T3 and T4 by means of radioimmunoas say. Each mouse is sacrificed and its heart is taken out for measurement of its heart weight and left ventricular weight. At conclusion of the experiment, the heart weight index and left ventricular weight index is calculated. [Heart weight index HWI=heart weight (HW)/body weight (BW); left ventricular weight index LVWI=left ventricular weight (LVW)/ body weight (BW)]
If the levels of the above indexes are substantially elevated, the model is regarded as successful.

[7] = catalpol 30 mg/kg gastric infusion once per day
[8] = catalpol 60 mg/kg gastric infusion once per day
[9] = catalpol 90 mg/kg gastric infusion once per day
[10] = in words, compared with the model group, catalpol 30, 60, 90 mg/kg groups, methimazole 7.5 mg/kg
[11] = methimazole 7.5 mg/kg gastric infusion once per day

OC[C@H]1O[C@@H](O[C@@H]2OC=C[C@H]3[C@H](O)[C@@H]4O[C@]4(CO)[C@@H]23)[C@H](O)[C@@H](O)[C@@H]1O [Catalpol]
appearance and behavior of the mice [1]: quieter and have reduced symptoms of dysphoria, excitability, and drier and darker hair
BW2 − BW1 [2, 7]: 9.00 g
BW2 − BW1 [2, 8]: 10.10 g
BW2 − BW1 [2, 9]: 10.15 g
body weight increase [2]: more body weight increase to some extent
BW2 [2, 7]: 36.40 g
BW2 [2, 8]: 37.80 g
BW2 [2, 9]: 37.75 g
BW1 ([2]; catalpol 30 mg/kg group): 27.40 g
BW1 ([2]; catalpol 60 mg/kg group): 27.70 g
BW1 ([2]; catalpol 90 mg/kg group): 27.60 g
Decrease in oxygen content ([3]; catalpol 30.0 mg/kg gastric infusion once per day): 8.88 %, 20 min
Decrease in oxygen content ([3]; catalpol 60.0 mg/kg gastric infusion once per day): 9.03 %, 20 min
Decrease in oxygen content [3, 9]: 8.81 %, 20 min
oxygen consumption [3]: significantly decreased oxygen consumption
Heart rate ([4]; catalpol 30 mg/kg gastric infusion once per day, 20 days, levothyroxine sodium 350 ug/kg s.c. daily): 507.56 times/min
Heart rate ([4]; catalpol 60 mg/kg gastric infusion once per day, 20 days, levothyroxine sodium 350 ug/kg s.c. daily): 538.75 times/min
Heart rate ([4]; catalpol 90 mg/kg gastric infusion once per day, 20 days, levothyroxine sodium 350 ug/kg s.c. daily): 529.63 times/min
Heart rate [4, 10]: decreased heart rate to some extent
T3 level in the serum [5]: decreased T3 level in the serum to some extent
FT3 level in the serum [5]: decreased FT3 level in the serum to some extent
FT4 level in the serum [5]: decreased FT4 level in the serum to some extent
T4 level in the serum [5]: decreased T4 level in the serum to some extent
FT3 [5, 7]: 7.49 ng/mL
FT4 [5, 7]: 22.87 ng/mL
T3 [5, 7]: 3.84 ng/mL
T4 [5, 7]: 181.02 ng/mL
FT3 [5, 8]: 8.22 ng/mL
FT4 [5, 8]: 23.77 ng/mL
T3 [5, 8]: 3.52 ng/mL
T4 [5, 8]: 179.90 ng/mL
FT3 [5, 9]: 7.56 ng/mL
FT4 [5, 9]: 24.02 ng/mL
T3 [5, 9]: 3.50 ng/mL
T4 [5, 9]: 178.50 ng/mL
HWI [6, 7]: 5.912
HWI [6, 8]: 5.650
HWI [6, 9]: 5.58
heart weight index [6]: decreased heart weight index to some extent
left ventricular index [6]: decreased left ventricular index to some extent
LVWI [6, 7]: 1.786
LVWI [6, 8]: 1.625
LVWI [6, 9]: 1.582

Cn1cc[nH]c1=S [methimazole, reference compound]
BW2 − BW1 [2, 11]: 9.00 g
body weight increase [2]: more body weight increase to some extent
BW2 [2, 11]: 36.30 g
BW1 ([2]; methimazole 7.5 mg/kg group): 27.30 g
oxygen consumption [3]: significantly decreased oxygen consumption
Decrease in oxygen content [3, 11]: 8.53 %, 20 min
Heart rate [4, 10]: decreased heart rate to some extent
Heart rate ([4]; methimazole 7.5 mg/kg gastric infusion once per day, 20 days, levothyroxine sodium 350 ug/kg s.c. daily): 474.02 times/min
T3 level in the serum [5]: decreased T3 level in the serum to some extent
FT3 level in the serum [5]: decreased FT3 level in the serum to some extent
FT4 level in the serum [5]: decreased FT4 level in the serum to some extent
T4 level in the serum [5]: decreased T4 level in the serum to some extent
FT3 [5, 11]: 8.80 ng/mL
FT4 [5, 11]: 26.85 ng/mL
T3 [5, 11]: 3.64 ng/mL
T4 [5, 11]: 145.61 ng/mL
HWI [6, 11]: 5.784
heart weight index [6]: decreased heart weight index to some extent
left ventricular index [6]: decreased left ventricular index to some extent
LVWI [6, 11]: 1.560

N[C@@H](Cc1cc(I)c(Oc2cc(I)c(O)c(I)c2)c(I)c1)C(=O)O [levothyroxine sodium]
HWI (Kunming mice; heart weight index = HW/BW, 7 day): 5.642 mg/g
LVWI (Kunming mice; left ventricular weight index = LVW/BW, 7 day): 3.735 mg/g
HR (Kunming mice; 6 day, mean ± S): 674.42 times/min
T3 (Kunming mice; serum, 7 day, mean ± S): 2.89 ng/mL
T4 (Kunming mice; serum, 7 day, mean ± S): 311.43 ng/mL
